Among the data in PubChem BioAssay AID274 (DTP/NCI, 2004) are T/C values, retold here.

This experiment has as its system BDF1 mice, Lewis lung carcinoma iv, survival T/C. The experiment is described as follows: NCI In Vivo Anticancer Drug Screen. Data for tumor model Lewis Lung Carcinoma (intravenous) in B6D2F1 (BDF1) mice. The settings on record: endpoint: median survival time, higher = longer survival. Here is the method:
The antitumor activity of compounds was measured in mice bearing transplantable tumors. Survival or tumor size were measured and the results are expressed as the measurement made in the treated group (T) divided by the measurement made in the vehicle treated control group (C). The tumor model used in this assay is Lewis Lung Carcinoma (intravenous) in B6D2F1 (BDF1) mice

[1] abbreviates: dose: 100.0 mg/kg/injection, schedule: Q01DX009 (ip), vehicle: saline.
Setting [2] is: dose: 200.0 mg/kg/injection, schedule: Q01DX009 (ip), vehicle: saline.
Setting [3] is: dose: 12.5 mg/kg/injection, schedule: Q01DX009 (ip), vehicle: saline with Tween-80.
Where [4] appears, read: dose: 25.0 mg/kg/injection, schedule: Q01DX009 (ip), vehicle: saline with Tween-80.
[5] abbreviates: dose: 50.0 mg/kg/injection, schedule: Q01DX009 (ip), vehicle: saline with Tween-80.
Where [6] appears, read: dose: 100.0 mg/kg/injection, schedule: Q01DX009 (ip), vehicle: saline with Tween-80.
Setting [7] is: dose: 200.0 mg/kg/injection, schedule: Q01DX009 (ip), vehicle: saline with Tween-80.
[8] abbreviates: dose: 400.0 mg/kg/injection, schedule: Q01DX009 (ip), vehicle: saline.
Setting [9] is: dose: 25.0 mg/kg/injection, schedule: Q01DX009 (ip), vehicle: saline.
Setting [10] is: dose: 50.0 mg/kg/injection, schedule: Q01DX009 (ip), vehicle: saline.

Each structure is given as a SMILES string. Several values for one entry are separate records, joined by “and”; a condition that tells them apart may be missing. Identical values can stand only once. Toxic doses and inconclusive results are not listed.

With `Nc1ncn(C2OC(CO)C(O)C2O)c(=O)n1` (stereo not drawn), the T/C runs as follows: (dose: 0.37 mg/kg/injection, schedule: Q01DX009 (ip), vehicle: saline) 100 % of control; (dose: 0.75 mg/kg/injection, schedule: Q01DX009 (ip), vehicle: saline) 113 % of control and 119 % of control; (dose: 1.5 mg/kg/injection, schedule: Q01DX009 (ip), vehicle: saline) 109 % of control and 115 % of control; (dose: 12.5 mg/kg/injection, schedule: Q01DX009 (ip), vehicle: suspension in saline) 115 % of control; (dose: 25.0 mg/kg/injection, schedule: Q01DX009 (ip), vehicle: suspension in saline) 124 % of control; (dose: 400.0 mg/kg/injection, schedule: Q01DX009 (ip), vehicle: suspension in saline) 175 % of control.

In the case of `COc1cc(C)c(C2NC(=O)c3ccccc3N2)cc1C` (stereo not drawn), the T/C is 105 % of control (dose: 25.0 mg/kg/injection, schedule: Q01DX009 (ip), vehicle: Klucel (hydroxypropylcellulose) (HPC)); 97 % of control (dose: 50.0 mg/kg/injection, schedule: Q01DX009 (ip), vehicle: Klucel (hydroxypropylcellulose) (HPC)); 92 % of control (dose: 100.0 mg/kg/injection, schedule: Q01DX009 (ip), vehicle: Klucel (hydroxypropylcellulose) (HPC)); 97 % of control (dose: 200.0 mg/kg/injection, schedule: Q01DX009 (ip), vehicle: Klucel (hydroxypropylcellulose) (HPC)); 101 % of control (dose: 400.0 mg/kg/injection, schedule: Q01DX009 (ip), vehicle: Klucel (hydroxypropylcellulose) (HPC)).

As to `CC(C)NNC(=O)c1ccncc1`, the T/C by setting is: (dose: 19.4 mg/kg/injection, schedule: Q01DX007 (ip), vehicle: Klucel (hydroxypropylcellulose) (HPC)) 95 % of control; (dose: 32.4 mg/kg/injection, schedule: Q01DX007 (ip), vehicle: Klucel (hydroxypropylcellulose) (HPC)) 91 % of control; (dose: 54.0 mg/kg/injection, schedule: Q01DX007 (ip), vehicle: Klucel (hydroxypropylcellulose) (HPC)) 95 % of control; (dose: 90.0 mg/kg/injection, schedule: Q01DX007 (ip), vehicle: Klucel (hydroxypropylcellulose) (HPC)) 96 % of control; (dose: 150.0 mg/kg/injection, schedule: Q01DX007 (ip), vehicle: Klucel (hydroxypropylcellulose) (HPC)) 91 % of control.

In the case of `Nc1ccc(OC(=O)Oc2ccc(N)cc2)cc1`, the T/C is, setting by setting: under setting [1], 102 % of control; under setting [2], 113 % of control.

Take `CCCCOCN(COCCCC)C(C)Cc1ccccc1` (stereo not drawn): the T/C is 102 % of control under setting [3]; 96 % of control under setting [4]; 95 % of control under setting [5]; 100 % of control under setting [6]; 101 % of control under setting [7].

Turning to `COCCOC`, the T/C reads like this: under setting [1], 100 % of control; under setting [2], 102 % of control; under setting [8], 100 % of control.

Regarding `CC(Oc1ccccc1-c1ccccc1)C(=O)N(C)C` (stereo not drawn), the T/C is 118 % of control under setting [3]; 95 % of control under setting [4]; 113 % of control under setting [5]; 93 % of control under setting [6]; 113 % of control under setting [7]; 114 % of control (dose: 400.0 mg/kg/injection, schedule: Q01DX009 (ip), vehicle: saline with Tween-80).

Turning to `CCN1/C(=C/C=C/C=C\C=C\c2sc3ccc4ccccc4c3[n+]2CC)Sc2ccc3ccccc3c21`, the T/C by setting is: (dose: 0.08 mg/kg/injection, schedule: Q01DX009 (ip), vehicle: saline with Tween-80) 101 % of control; (dose: 0.16 mg/kg/injection, schedule: Q01DX009 (ip), vehicle: saline with Tween-80) 104 % of control; (dose: 0.31 mg/kg/injection, schedule: Q01DX009 (ip), vehicle: saline with Tween-80) 98 % of control; (dose: 0.62 mg/kg/injection, schedule: Q01DX009 (ip), vehicle: saline with Tween-80) 104 % of control; (dose: 1.25 mg/kg/injection, schedule: Q01DX009 (ip), vehicle: saline with Tween-80) 105 % of control; (dose: 2.5 mg/kg/injection, schedule: Q01DX009 (ip), vehicle: saline with Tween-80) 105 % of control.

In the case of `O=C1C(=O)c2cccnc2-c2ncccc21`, the T/C is, setting by setting: (dose: 0.78 mg/kg/injection, schedule: Q01DX009 (ip), vehicle: Klucel (hydroxypropylcellulose) (HPC)) 116 % of control; (dose: 1.56 mg/kg/injection, schedule: Q01DX009 (ip), vehicle: Klucel (hydroxypropylcellulose) (HPC)) 91 % of control; (dose: 3.12 mg/kg/injection, schedule: Q01DX009 (ip), vehicle: Klucel (hydroxypropylcellulose) (HPC)) 100 % of control.

In the case of `CS(=O)(=O)OCCCNCCCOS(C)(=O)=O`, the T/C (dose: 5.0 mg/kg/injection, schedule: Q01DX009 (ip), vehicle: saline) was 96 % of control; the T/C (dose: 10.0 mg/kg/injection, schedule: Q01DX009 (ip), vehicle: saline) is 106 % of control and 114 % of control; the T/C (dose: 20.0 mg/kg/injection, schedule: Q01DX009 (ip), vehicle: saline) is 108 % of control; the T/C (dose: 40.0 mg/kg/injection, schedule: Q01DX009 (ip), vehicle: saline) was 113 % of control.

As for `NC(N)=NOCC[C@@H](N)C(=O)O`, the T/C is 105 % of control under setting [9]; 99 % of control under setting [10]; 107 % of control under setting [1]; 94 % of control under setting [2]; 112 % of control under setting [8].

Take `CC(C)(C)N1CC1CNC(=O)C(=O)NCC1CN1C(C)(C)C` (stereo not drawn): the T/C (dose: 0.78 mg/kg/injection, schedule: Q01DX009 (ip), vehicle: saline with Tween-80) was 111 % of control; the T/C (dose: 1.56 mg/kg/injection, schedule: Q01DX009 (ip), vehicle: saline with Tween-80) is 105 % of control; the T/C (dose: 3.12 mg/kg/injection, schedule: Q01DX009 (ip), vehicle: saline with Tween-80) is 98 % of control; the T/C (dose: 6.25 mg/kg/injection, schedule: Q01DX009 (ip), vehicle: saline with Tween-80) was 105 % of control; the T/C under setting [3] was 117 % of control.

On to `O=C(C1CO1)C(Cl)(Cl)Cl` (stereo not drawn), for which the T/C is, setting by setting: (dose: 12.5 mg/kg/injection, schedule: Q01DX009 (ip), vehicle: saline) 98 % of control; under setting [9], 102 % of control.

As to `CCCCCCCCCCCCCCCCCCCCCC(=O)Nc1ccn(C2OC(CO)C(O)C2O)c(=O)n1` (stereo not drawn), the T/C reads like this: under setting [4], 94 % of control; under setting [5], 124 % of control; under setting [6], 113 % of control; under setting [7], 120 % of control.

For the compound `O=c1c(O)c(-c2cc(O)c(O)c(O)c2)oc2cc(O)cc(O)c12`, the T/C was 88 % of control (dose: 6.25 mg/kg/injection, schedule: Q01DX009 (ip), vehicle: other); 94 % of control (dose: 12.5 mg/kg/injection, schedule: Q01DX009 (ip), vehicle: other); 93 % of control (dose: 25.0 mg/kg/injection, schedule: Q01DX009 (ip), vehicle: other); 93 % of control (dose: 50.0 mg/kg/injection, schedule: Q01DX009 (ip), vehicle: other); 115 % of control (dose: 100.0 mg/kg/injection, schedule: Q01DX009 (ip), vehicle: other); 97 % of control (dose: 200.0 mg/kg/injection, schedule: Q01DX009 (ip), vehicle: other).

As to `O=C1c2c(O)ccc(O)c2C(=O)c2c(NCCNCCO)ccc(NCCNCCO)c21`, the T/C reads like this: (dose: 1.0 mg/kg/injection, schedule: Q01DX005 (ip), vehicle: saline with Tween-80) 276 % of control; (dose: 2.0 mg/kg/injection, schedule: Q01DX005 (ip), vehicle: saline with Tween-80) 115 % of control; (dose: 4.0 mg/kg/injection, schedule: Q01DX005 (ip), vehicle: saline with Tween-80) 116 % of control.

As to `Nc1nc2c(c(=O)[nH]1)NC(CCNc1ccc(C(=O)NC(CCC(=O)O)C(=O)O)cc1)CN2` (stereo not drawn), the T/C runs as follows: under setting [9], 111 % of control; under setting [10], 103 % of control; under setting [1], 117 % of control.
